Tests used:
[1] = system: U87-MG cells; assay: Subcutaneous U87-MG tumor growth, single treatment; type: in vivo, athymic nude-Foxn1nu mice; conditions: day 34, 100 µM intratumoral, 5 days on 2 days off; controls 800 mm^3
Procedure: (§1) For tumor growth experiments, 5 × 10^5 U87-MG cells were subcutaneously injected into two bottom flanks of athymic nude-Foxn1^nu mice, and once tumors reached a size of 25-50 mm^3, mice were sorted into groups taking into account gender and tumor size. Afterwards, mice were intratumorally treated with vehicle, SAHA 100 µM or DDI199 100 µM following a schedule of 5 days on and 2 days off. In combined treatment, mice were treated intraperitoneally with 0.5 mg/Kg of TMZ for 5 days and intratumorally following a schedule of 5 days on and 2 days off with vehicle, SAHA 100 µM or DDI199 100 µM. After 4 weeks of treatment, some mice were kept for washout experiment, while the rest were sacrificed and tumors were extracted for immunohistochemistry and to disaggregate for reinjection and oncosphere formation studies. For reinjection assays, 1.5 × 10^5 cells were subcutaneously injected and tumor size was periodically measured. Once tumors reached end-point criteria, they were extracted for immunohistochemical analysis. An external caliper was used for tumor size measurement and the tumor volume was estimated using the formula V = L · W^2 · 0.5 (where L is tumor length and W is the tumor width).

[2] = system: U87-MG cells; assay: Washout experiment after treatment; type: in vivo, athymic nude-Foxn1nu mice; conditions: after 4 weeks treatment; controls 10 days
Procedure: as §1

[3] = system: U87-MG cells; assay: Subcutaneous U87-MG tumor growth, combined treatment with TMZ; type: in vivo, athymic nude-Foxn1nu mice; conditions: end-point, controls 600 mm^3
Procedure: as §1

[4] = system: U87-MG cells; assay: Cell viability with TMZ and DDI199 alone or combined; type: cell-based, human; conditions: 72 h, 250 µM TMZ or 0.5 µM DDI199 alone
Procedure: MTT assay was used to study cell viability. For that, cells were seeded at a density of 1.5 × 10^3 cells/well in 96-well plates, incubated overnight and then treated with increasing concentrations of DDI199. After 72 h of treatment, MTT absorbance was measured at 570 nm. GraphPad Prism software was used to analyze results and calculate IC50 values.

SMILES	Mean final tumor volume [1] [mm^3]	Time to end-point volume after washout [2] [days]	Mean tumor volume, combined with TMZ ([3]; TMZ 0.5 mg/kg ip 5 days + 100 µM intratumoral) [mm^3]	Cell viability, single agent [4]	Mean tumor volume, TMZ alone ([3]; TMZ 0.5 mg/kg ip 5 days) [mm^3]
O=C(CCCCCCC(=O)Nc1ccccc1)NO [SAHA, Vorinostat, reference compound]	550	10	355	–	–
Cn1nnc2c(C(N)=O)ncn2c1=O [TMZ, temozolomide, reference compound]	–	–	–	reduced cell viability	400
